Measured values taken from patent publication US9687539B2, “CD4+ T survivin epitopes and uses thereof” (Commissariat a I'Energie Atomique, priority 2005, dated 2017).
Where a chain is given by its changes, count along the chain named. Like-named read-outs stand apart in the source and are kept apart here. Residues, ends and D or L forms follow the SMILES beside them. No end group written: not given here.

Columns and labels:
HLA-DRB5 (DRB5*0101) = HLA-DRB5 (DRB5*0101) (Homo sapiens, UniProt P01903+Q30154); test: Competitive HLA II/peptide binding assay, HLA-DRB5; settings: competition with biotinylated tracer; 3 independent experiments
HLA-DR3 (DRB1*0301) = HLA-DR3 (DRB1*0301) (Homo sapiens, UniProt P01903+P01911, A100K/A102G/A103R/A169T/F55Y/I96L/K41T/L162R/M171V/P40S/Q125H/Q178H/Q39Y/R42S/S66N/T106N/T262R/W38E/Y61H); test: biochemical; settings: competition with biotinylated tracer; 3 independent experiments; read-out: Binding activity DR3 (IC50)
HLA-DR13 (DRB1*1301) = HLA-DR13 (DRB1*1301) (Homo sapiens, UniProt P01903+P01911, A100E/A169T/K41T/L162R/M171V/P40S/Q125H/Q178H/Q39Y/Q99D/R42S/S66N/T262R/W38E/Y61H); test: Competitive HLA II/peptide binding assay, HLA-DR13
[1] = tested on: 12 predominant HLA II molecules; test: Binding to the 12 predominant HLA II molecules, summary; parameters: species or system human; settings: for No. of molecules fixed: number of the 12 predominant HLA II molecules bound (IC50 < 1000 nM)
From the text: The assays for binding to HLA II molecules are competitive binding assays with immunoenzymatic visualization, as described in U.S. Pat. No. 6,649,166, Texier et al., J. Immunol., 2000, 164, 3177-3184 and Texier et al., Eur. J. Immunol., 2001, 31, 1837-1846, for the HLA-DR molecules, and in PCT international application WO 03/040299 and Castelli et al., J. Immunol., 2002, 169, 6928-6934, for the HLA-DP4 molecule. The use of these assays for measuring the binding activity of peptides derived from various antigens is illustrated in U.S. Pat. No. 6,649,166 and PCT international applications WO 02/090382, WO 03/040299 and WO 2004/014936.
The sensitivity of each assay is reflected by the IC50 values observed with the nonbiotinylated peptides which correspond to the tracers; the IC50 values of the tracers vary by a factor of less than three.

HLA-DR15 (DRB1*1501) = HLA-DR15 (DRB1*1501) (Homo sapiens, UniProt P01903+P01911); test: Competitive HLA II/peptide binding assay, HLA-DR15; settings: competition with biotinylated tracer; 3 independent experiments
HLA-DP402 (DP*0402) = target: T1, HLA-DP402 (DP*0402) (Homo sapiens, UniProt P04440+P20036, A65V/A84D/A85E/L207M); test: biochemical; settings: competition with biotinylated tracer; 3 independent experiments; read-out: Binding activity DP402 (IC50)
T1 sequence (P04440 30-258 A65V/A84D/A85E): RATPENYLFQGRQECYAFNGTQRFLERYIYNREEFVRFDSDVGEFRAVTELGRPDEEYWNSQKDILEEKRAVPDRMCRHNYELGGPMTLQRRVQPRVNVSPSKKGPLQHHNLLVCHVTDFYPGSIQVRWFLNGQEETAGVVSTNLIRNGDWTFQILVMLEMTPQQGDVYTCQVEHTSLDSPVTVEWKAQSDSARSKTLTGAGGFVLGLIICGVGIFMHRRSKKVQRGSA
T1 sequence (P20036 29-260): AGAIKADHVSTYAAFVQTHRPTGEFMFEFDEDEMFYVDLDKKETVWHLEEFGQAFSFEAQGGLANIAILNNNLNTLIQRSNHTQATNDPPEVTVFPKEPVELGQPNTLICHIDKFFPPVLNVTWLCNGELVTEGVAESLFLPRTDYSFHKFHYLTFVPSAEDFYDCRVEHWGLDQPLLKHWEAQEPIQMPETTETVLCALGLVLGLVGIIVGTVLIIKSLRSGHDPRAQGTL

HLA-DRB4 (DRB4*0101) = HLA-DRB4 (DRB4*0101) (Homo sapiens, UniProt P01903+P13762, G164S); test: Competitive HLA II/peptide binding assay, HLA-DRB4; settings: competition with biotinylated tracer; 3 independent experiments
[2] = tested on: HLA-DP4-restricted CD4+ T lymphocyte lines; test: Immunogenicity in an HLA-DP4 context, IFN-γ ELISPOT; assay type: cell-based, human; settings: for Number of spots: peptide presented by HLA-DP4, mean (±SD)
Protocol: HLA-DP4-restricted survivin-specific CD4+ T lymphocyte lines were produced using the mixture of peptides 84-98, 93-107, 90-104 and 19-33 for the stimulation of the autologous dendritic cells, according to a protocol similar to that use for the production of T lymphocyte lines restricted to the set of HLA-DR molecules predominant in the Caucasian population.
The anti-IFN-γ human monoclonal antibody 1-D1K (MABTECH), diluted to 10 μg/ml in PBS buffer, was adsorbed onto nitrocellulose plates (Multiscreen HA; Millipore) for 1 hour at 37° C. The plates were subsequently washed with PBS and then saturated with complete IMDM medium (100 μl/well), for 1 h at 37° C. The antigen-presenting cells are autologous PBMCs, immature autologous dendritic cells prepared as specified above, or a mouse fibroblast line (line L), transfected with the cDNA encoding one of the HLA-DR or HLA-DP4 molecules to be tested (Yu et al. Hum. Immunol. 1990, 27, 132-135), so as to verify the specificity of the lines with respect to the HLA-DR and HLA-DP4 molecules. The antigen-presenting cells (10^5 autologous PBMCs, 3×10^4 transfected L cells or 2×10^4 immature autologous dendritic cells) and the CD4+ T lymphocytes to be tested (10^4 CD4+ T lymphocytes) were subsequently added to the plates and incubated for 24 h at 37° C., in the presence or absence of a single peptide (2 μg), of a mixture of peptides (2 μg of each peptide) or of a protein (Bir5 or Nef). The proteins (1 μM) are incubated for 4 h at 37° C. in the presence of immature dendritic cells, and then washed. The peptides are added directly to the plates. For the dose-response analyses, the peptides are used at various concentrations ranging from 10^−5 to 10^−10 M. After three successive washes with water, and then with PBS buffer-0.05% Tween and, finally, with PBS alone, 100 μl of biotin-conjugated anti-IFN-γ secondary antibody (7-B6-1-biotin, MABTECH), diluted to 0.25 μg/ml in PBS containing 1% BSA, were added to each well. After incubation for one hour, the plates were washed again and incubated with 100 μl/well of extravidin-phosphatase (E-2636, SIGMA), diluted to 1/6000. After washing of the plates in PBS buffer, 100 μl of NBT/BCIP substrate (B-5655, SIGMA), diluted in water (one tablet in 10 ml of water), were distributed into each well. The immunoenzymatic revelation was stopped after approximately 10 minutes by thorough rinsing of the plates in water, and the colored spots were counted using an automatic reader (ELISPOT reader system, AID). The lines are considered to be positive when the number of spots is greater than three times that obtained with the negative control (control without peptides) with a minimum of 50 spots. The control without presenting cells makes it possible to verify the specificity of the response for HLA-DR or HLA-DP4 (restriction control).

HLA-DP401 (DP*0401) = target: T2, HLA-DP401 (DP*0401) (Homo sapiens, UniProt P04440+P20036); test: biochemical; settings: competition with biotinylated tracer; 3 independent experiments; read-out: Binding activity DP401 (IC50)
T2 sequence (P04440 30-258): T1 sequence (P04440 30-258 A65V/A84D/A85E) with V36A, D55A, E56A
T2 sequence (P20036 29-260): T1 sequence (P20036 29-260)

Compound: LSVKKQFEELTLGEF [87-101, L S V K K Q F E E L T L G E F]
- IC50 (HLA-DRB5 (DRB5*0101)): 6 µM
- IC50 (HLA-DR3 (DRB1*0301)): > 100 µM
- IC50 (HLA-DR13 (DRB1*1301); competition with biotinylated tracer, 3 independent experiments, read-out: Binding activity DR13 (IC50)): > 100000 nM
- No. of molecules fixed [1]: 2

Compound: TERVRLVTRHIYNREE [B1 21-36, reference compound]
- IC50 (HLA-DR13 (DRB1*1301); DRB1*1301, tracer 100 nM, pH 4.5, 72 h, read-out: IC50 (nM) of nonbiotinylated tracer peptide): 800 nM

Compound: CC[C@H](C)[C@H](NC(=O)[C@H](CCCNC(=N)N)NC(=O)[C@H](Cc1c[nH]cn1)NC(=O)[C@H](CC(=O)O)NC(=O)[C@H](CCCCN)NC(=O)[C@H](CC(C)C)NC(=O)[C@H](Cc1ccccc1)NC(=O)[C@@H]1CCCN1C(=O)[C@H](CCC(N)=O)NC(=O)[C@H](Cc1c[nH]c2ccccc12)NC(=O)[C@H](C)NC(=O)[C@@H]1CCCN1)C(=O)N[C@@H](CO)C(=O)N[C@H](C(=O)N[C@@H](Cc1ccccc1)C(=O)O)[C@@H](C)O [8-22, P A W Q P F L K D H R I S T F]
- IC50 (HLA-DR15 (DRB1*1501)): 5.2 µM
- IC50 (HLA-DP402 (DP*0402)): 10.5 µM
- IC50 (HLA-DRB4 (DRB4*0101)): 29 µM
- No. of molecules fixed [1]: 1

Compound: CC(C)C[C@H](NC(=O)[C@H](CCC(=O)O)NC(=O)[C@H](CCCCN)NC(=O)[C@H](Cc1ccccc1)NC(=O)[C@H](CS)NC(=O)[C@H](Cc1ccccc1)NC(=O)[C@H](Cc1ccccc1)NC(=O)[C@H](CS)NC(=O)[C@@H](N)CCC(N)=O)C(=O)N[C@@H](CCC(=O)O)C(=O)NCC(=O)N[C@@H](Cc1c[nH]c2ccccc12)C(=O)N[C@@H](CCC(=O)O)C(=O)N1CCC[C@H]1C(=O)N[C@@H](CC(=O)O)C(=O)O [56-70, Q C F F C F K E L E G W E P D] (H-QCFFCFKELEGWEPD-OH; N-terminus and C-terminus assumed)
- No. of molecules fixed [1]: 1

Compound: QPFLKDHRISTFKNW [11-25, Q P F L K D H R I S T F K N W]
- No. of molecules fixed [1]: 2

Compound: E E L T L G E F L K L D R E R (EELTLGEFLKLDRER; listed as Homo sapiens) [94-108, 15-mer of human survivin, positions 94-108; insoluble peptide]
- No. of molecules fixed [1]: 0

Compound: CC[C@H](C)[C@H](N)C(=O)N[C@@H](CO)C(=O)N[C@H](C(=O)N[C@@H](Cc1ccccc1)C(=O)N[C@@H](CCCCN)C(=O)N[C@@H](CC(N)=O)C(=O)N[C@@H](Cc1c[nH]c2ccccc12)C(=O)N1CCC[C@H]1C(=O)N[C@@H](Cc1ccccc1)C(=O)N[C@@H](CC(C)C)C(=O)N[C@@H](CCC(=O)O)C(=O)NCC(=O)N[C@@H](CS)C(=O)N[C@@H](C)C(=O)N[C@@H](CS)C(=O)O)[C@@H](C)O [peptide 19-33, I S T F K N W P F L E G C A C]
- Number of spots ([2]; donor 169, line 169-14): 1 (±0)
- Number of spots ([2]; donor 169, line 169-34): 228 (±17)
- Number of spots ([2]; donor 169, line 169-56): 195 (±0)
- Number of spots ([2]; donor 171, line 171-3): 5 (±0)
- Immunogenicity in an HLA-DP4 context ([2]; mixture of peptides 84-98, 93-107, 90-104 and 19-33 used for stimulation): immunogenic in an HLA-DP4 context
- No. of molecules fixed [1]: 7

Compound: CC(C)C[C@H](NC(=O)[C@H](Cc1ccccc1)NC(=O)[C@@H]1CCCN1C(=O)[C@H](Cc1c[nH]c2ccccc12)NC(=O)[C@H](CC(N)=O)NC(=O)[C@@H](N)CCCCN)C(=O)N[C@@H](CCC(=O)O)C(=O)NCC(=O)N[C@@H](CS)C(=O)N[C@@H](C)C(=O)N[C@@H](CS)C(=O)N[C@H](C(=O)N1CCC[C@H]1C(=O)N[C@@H](CCC(=O)O)C(=O)N[C@@H](CCCNC(=N)N)C(=O)O)[C@@H](C)O [23-37, K N W P F L E G C A C T P E R] (H-KNWPFLEGCACTPER-OH; N-terminus and C-terminus assumed)
- No. of molecules fixed [1]: 1

Compound: CC[C@H](C)[C@H](NC(=O)[C@H](CCCCN)NC(=O)[C@@H](N)CC(N)=O)C(=O)N[C@@H](C)C(=O)N[C@@H](CCCCN)C(=O)N[C@@H](CCC(=O)O)C(=O)N[C@H](C(=O)N[C@@H](CC(N)=O)C(=O)N[C@@H](CC(N)=O)C(=O)N[C@@H](CCCCN)C(=O)N[C@@H](CCCCN)C(=O)N[C@@H](CCCCN)C(=O)N[C@@H](CCC(=O)O)C(=O)N[C@@H](Cc1ccccc1)C(=O)N[C@@H](CCC(=O)O)C(=O)O)[C@@H](C)O [111-125, N K I A K E T N N K K K E F E]
- IC50 (HLA-DP402 (DP*0402)): > 100 µM
- IC50 (HLA-DP401 (DP*0401)): > 100 µM
- No. of molecules fixed [1]: 1

Compound: CC(C)C[C@H](NC(=O)[C@H](CC(=O)O)NC(=O)[C@@H]1CCCN1)C(=O)N[C@@H](C)C(=O)N[C@@H](CCC(N)=O)C(=O)N[C@@H](CS)C(=O)N[C@@H](Cc1ccccc1)C(=O)N[C@@H](Cc1ccccc1)C(=O)N[C@@H](CS)C(=O)N[C@@H](Cc1ccccc1)C(=O)N[C@@H](CCCCN)C(=O)N[C@@H](CCC(=O)O)C(=O)N[C@@H](CC(C)C)C(=O)N[C@@H](CCC(=O)O)C(=O)NCC(=O)O [52-66, P D L A Q C F F C F K E L E G] (H-PDLAQCFFCFKELEG-OH; N-terminus and C-terminus assumed)
- Binding specificity for HLA II molecules [1]: bind only to the HLA-DR11 molecule
- No. of molecules fixed [1]: 1
